Experiments:
HEK293E cells [1] = test: Combination with IDMTs, IgG batch yield by ELISA (Example 6); assay type: cell-based, Human; conditions: no addition = 100%, day 5
Description: 10 million suspension-adapted HEK293E cells were resuspended in 0.5 ml of Ex-Cell 293 HEK 293 serum-free medium with 4 mmol/l L-glutamine (Cat. No. 14571C-[…]; Lot No. 6A0093; SAFC Biosciences, Lenexa, Kans., USA, “Ex-Cell” medium; note: “Ex-Cell” medium-as used herein-refers to a medium comprising 4 mmol/l L-glutamine) in a 50-ml filter tube each (TPP AG, Trasadingen, Switzerland; Cat. No. 87050, Lot 20050174). In a separate set, 10 million suspension-adapted CHO DG44 cells were resuspended in 0.5 ml of ProCHO5 serum-free medium with 4 mmol/[…] hypoxanthine and 0.194 g/l thymidine (BioWhittaker (Lonza), Belgium; Cat. No. BE12-[…]; Lot No. 7MB0040; “ProCHO5” medium; note: “ProCHO5” medium-as used herein-refers to a medium comprising 4 mmol/[…] hypoxanthine and 0.194 g/l thymidine) in a 50-ml filter tube each (TPP AG, Trasadingen, Switzerland; Cat. No. 87050, Lot 20050174). Then 12.5 μg plasmid DNA at a concentration of 1 μg/μl was added in each tube with the following composition 50% (6.25 μg) p-LC (SEQ ID NO: 1) 50% (6.25 μg) p-HC (SEQ ID NO: 3). Plasmid p-LC comprises the genetic information for the production of the light chain of an IgG antibody, plasmid p-HC comprises the genetic information for the production of the heavy chain of an IgG antibody. The particular vector constructs used in the present invention can also be obtained from the inventors. The inventors can be contacted via e-mail at […]. […] In short, Goat anti-human kappa light chain IgG (Biosource) was used for coating the ELISA-plates, and with AP-conjugated goat anti-human gamma chain IgG (Biosource) the synthesized IgG1 was detected. […] Absorption was measured at 405 nm against 490 nm using a microplate reader (SPECTRAmaxTM340; Molecular Devices, Palo Alto, Calif., USA).

CHO DG44 cells [2] = test: as above; assay type: cell-based, Chinese Hamster; conditions: day 5; for Fold increase in batch yield over control: no addition = 100%; for interaction with VPA in increasing batch yield: CHO cells
Description: 10 million suspension-adapted HEK293E cells were resuspended in 0.5 ml of Ex-Cell 293 HEK 293 serum-free medium with 4 mmol/l L-glutamine (Cat. No. 14571C-[…]; Lot No. 6A0093; SAFC Biosciences, Lenexa, Kans., USA, “Ex-Cell” medium; note: “Ex-Cell” medium-as used herein-refers to a medium comprising 4 mmol/l L-glutamine) in a 50-ml filter tube each (TPP AG, Trasadingen, Switzerland; Cat. No. 87050, Lot 20050174). In a separate set, 10 million suspension-adapted CHO DG44 cells were resuspended in 0.5 ml of ProCHO5 serum-free medium with 4 mmol/[…] hypoxanthine and 0.194 g/l thymidine (BioWhittaker (Lonza), Belgium; Cat. No. BE12-[…]; Lot No. 7MB0040; “ProCHO5” medium; note: “ProCHO5” medium-as used herein-refers to a medium comprising 4 mmol/[…] hypoxanthine and 0.194 g/l thymidine) in a 50-ml filter tube each (TPP AG, Trasadingen, Switzerland; Cat. No. 87050, Lot 20050174). Then 12.5 μg plasmid DNA at a concentration of 1 μg/μl was added in each tube with the following composition 50% (6.25 μg) p-LC (SEQ ID NO: 1) 50% (6.25 μg) p-HC (SEQ ID NO: 3). Plasmid p-LC comprises the genetic information for the production of the light chain of an IgG antibody, plasmid p-HC comprises the genetic information for the production of the heavy chain of an IgG antibody. The particular vector constructs used in the present invention can also be obtained from the inventors. The inventors can be contacted via e-mail at […]. Moreover, commercial services do exist that produce any desired nucleotide sequence even comprising several kilobase pairs including complete expression cassettes in plasmid backgrounds (e.g., Invitrogen, Carlsbad, USA; Geneart, Germany.) Thus, providing the genetic sequence information of the plasmids should enable one of ordinary skill in the art to order the plasmids of the present invention at one of the commercial services listed. After shortly mixing the DNA with the cells by gentle shaking, 25 μg of 25-kd linear polyethyleneimine (“PEI”; Polysciences, Eppelheim, Germany; [2]) were added at a concentration of 1 μg/μl to each of the tubes. After shortly mixing by gentle shaking, the filter tubes containing the cells together with the DNA and PEI were transferred into an orbital shaker (Kühner Shaker Cabinet ISF-4-W, “Kühner shaker”, Kühner AG, Birsfelden, Switzerland), and the cells were incubated for 4 hours at 37° C. in a 5% CO2 atmosphere under shaking at 180 rpm. After that time, 4.5 ml of Ex-Cell medium were added to each of the filter tubes containing HEK 293 cells and 4.5 ml of Pro-CHO5 were added to each of the filter tubes containing CHO DG44 cells. Then, valproic acid was added to each of the tubes at the corresponding final concentration. In addition, the following chemicals were added to the corresponding tubes at a final concentration of: […] Azacytidine was purchased from Sigma-Aldrich Chemie GmbH, Industriestrasse 25, CH-9471 Buchs SG, Catalog Number A1287-1 VL. RG108 was purchased from Sigma-Aldrich Chemie GmbH, Industriestrasse 25, CH-9471 Buchs SG, Catalog Number R8279-10MG. The cells then were returned into the Kuhner shaker and incubated at 37° C. in a 5% CO2 atmosphere under shaking at 180 rpm. […] In short, Goat anti-human kappa light chain IgG (Biosource) was used for coating the ELISA-plates, and with AP-conjugated goat anti-human gamma chain IgG (Biosource) the synthesized IgG1 was detected. […] Absorption was measured at 405 nm against 490 nm using a microplate reader (SPECTRAmaxTM340; Molecular Devices, Palo Alto, Calif., USA).

CHO DG44 cells [3] = test: Influence of temperature on IgG batch titer and comparison with sodium butyrate (Example 2); assay type: cell-based, Chinese Hamster; conditions: 3 mmol/l sodium butyrate; relative to control = 1; day 5 after transfection
Description: (§1) No. 14571C-[…]; Lot No. 6A0093; SAFC Biosciences, Lenexa, Kans., USA, “Ex-Cell” medium; note: “Ex-Cell” medium-as used herein-refers to a medium comprising 4 mmol/l L-glutamine) in a 50-ml filter tube each (TPP AG, Trasadingen, Switzerland; Cat. No. 87050, Lot 20050174). In a separate set, 10 million suspension-adapted CHO DG44 cells were resuspended in 0.5 ml of ProCHO5 serum-free medium with 4 mmol/[…] hypoxanthine and 0.194 g/l thymidine (BioWhittaker (Lonza), Belgium; Cat. No. BE12-[…]; Lot No. 7 MB0040; “ProCHO5” medium; note: “ProCHO5” medium-as used herein-refers to a medium comprising 4 mmol/[…] hypoxanthine and 0.194 g/l thymidine) in a 50-ml filter tube each (TPP AG, Trasadingen, Switzerland; Cat. No. 87050, Lot 20050174). Then 12.5 μg plasmid DNA at a concentration of 1 μg/μl was added in each tube with the following composition 50% (6.25 μg) p-LC (SEQ ID NO: 1) 50% (6.25 μg) p-HC (SEQ ID NO: 3). Plasmid p-LC comprises the genetic information for the production of the light chain of an IgG antibody, plasmid p-HC comprises the genetic information for the production of the heavy chain of an IgG antibody. The particular vector constructs used in the present invention can also be obtained from the inventors. The inventors can be contacted via e-mail at […]. Moreover, commercial services do exist that produce any desired nucleotide sequence even comprising several kilobase pairs including complete expression cassettes in plasmid backgrounds (e.g., Invitrogen, Carlsbad, USA; Geneart, Germany.) Thus, providing the genetic sequence information of the plasmids should enable one of ordinary skill in the art to order the plasmids of the present invention at one of the commercial services listed. After shortly mixing the DNA with the cells by gentle shaking, 25 μg of 25-kd linear polyethyleneimine (“PEI”; Polysciences, Eppelheim, Germany; [2]) were added at a concentration of 1 μg/μl to each of the tubes. After shortly mixing by gentle shaking, the filter tubes containing the cells together with the DNA and PEI were transferred into an orbital shaker (Kühner Shaker Cabinet ISF-4-W, “Kühner shaker”, Kühner AG, Birsfelden, Switzerland), and the cells were incubated for 4 hours at 37° C. in a 5% CO2 atmosphere under shaking at 180 rpm. After that time, 4.5 ml of Ex-Cell medium were added to each of the filter tubes containing HEK 293 cells and 4.5 ml of Pro-CHO5 were added to each of the filter tubes containing CHO DG44 cells. […] No. […] Sigma-Aldrich Chemie GmbH, Industriestrasse 25, CH-9471 Buchs SG) was added to the corresponding tubes at the corresponding final concentrations. The cells then were returned into the Kühner shaker. Half the tubes were incubated at 37° C. in a 5% CO2 atmosphere under shaking at 180 rpm, the other half was incubated at 31° C. […] The ELISA was performed as published in prior art. In short, Goat anti-human kappa light chain IgG (Biosource) was used for coating the ELISA-plates, and with AP-conjugated goat anti-human gamma chain IgG (Biosource) the synthesized IgG1 was detected. NPP was used as a substrate for the alkaline phosphatase. Absorption was measured at 405 nm against 490 nm using a microplate reader (SPECTRAmaxTM340; Molecular Devices, Palo Alto, Calif., USA).

HEK293E cells [4] = test: Preferred embodiment: transient IgG expression with p18 and p21 co-transfection, batch titer by ELISA; assay type: cell-based, Human
Description: 20 million suspension-adapted HEK293E cells were resuspended in 1 ml of Ex-Cell 293 HEK 293 serum-free medium with 4 mmol/l L-glutamine (Cat. No. 14571C-[…]; Lot No. 6A0093; SAFC Biosciences, Lenexa, Kans., USA, “Ex-Cell” medium; note: “Ex-Cell” medium-as used herein-refers to a medium comprising 4 mmol/l L-glutamine) in a 50-ml filter tube each (TPP AG, Trasadingen, Switzerland; Cat. No. 87050, Lot 20050174). Then 50 μg plasmid DNA at a concentration of 1 μg/μl was added in each tube with the following composition […] Plasmid p-LC comprises the genetic information for the production of the light chain of an IgG antibody, plasmid p-HC comprises the genetic information for the production of the heavy chain of an IgG antibody, plasmid p-p18 comprises the genetic information for the protein p18, and plasmid p-p21 comprises the genetic information for the protein p21. The particular vector constructs used in the present invention can also be obtained from the inventors. The inventors can be contacted via e-mail at […]. Moreover, commercial services do exist that produce any desired nucleotide sequence even comprising several kilobase pairs including complete expression cassettes in plasmid backgrounds (e.g., Invitrogen, Carlsbad, USA; Geneart, Germany.) Thus, providing the genetic sequence information of the plasmids should enable one of ordinary skill in the art to order the plasmids of the present invention at one of the commercial services listed. After shortly mixing the DNA with the cells by gentle shaking, 100 μg of 25-kd linear polyethyleneimine (“PEI”; Polysciences, Eppelheim, Germany; [2]) were added at a concentration of 1 μg/μl to each of the tubes. After shortly mixing by gentle shaking, the filter tubes containing the cells together with the DNA and PEI were transferred into an orbital shaker (Kühner Shaker Cabinet ISF-4-W, “Kühner shaker”, Kühner AG, Birsfelden, Switzerland), and the cells were incubated for 3 hours at 37° C. in a 5% CO2 atmosphere under shaking at 180 rpm. After that time, 4 ml of Ex-Cell medium were added to each of the filter tubes. […] No. B5887-1G; Sigma-Aldrich Chemie GmbH, Industriestrasse 25, CH-9471 Buchs SG) was added to the corresponding tubes at the corresponding final concentrations. […] The ELISA was performed as published in prior art. In short, Goat anti-human kappa light chain IgG (Biosource) was used for coating the ELISA-plates, and with AP-conjugated goat anti-human gamma chain IgG (Biosource) the synthesized IgG1 was detected. NPP was used as a substrate for the alkaline phosphatase. Absorption was measured at 405 nm against 490 nm using a microplate reader (SPECTRAmaxTM340; Molecular Devices, Palo Alto, Calif., USA).

HEK293E cells [5] = test: Influence of temperature on IgG batch titer and comparison with sodium butyrate (Example 2); assay type: cell-based, Human; conditions: 3 mmol/l sodium butyrate; relative to control = 1; day 5 after transfection
Description: as §1

| Compound | Fold increase in batch yield over control (HEK293E cells [1]; Azacytidine 6 μmol/l) | Fold increase in batch yield over control (CHO DG44 cells [2]; Azacytidine 4 μmol/l) | interaction with VPA in increasing batch yield (CHO DG44 cells [2]) | Fold increase in batch yield over control (HEK293E cells [1]; RG108 8 μmol/l) | Fold increase in batch yield over control (CHO DG44 cells [2]; RG108 60 μmol/l) | Batch titer increase at 31° C. (CHO DG44 cells [3]) | Batch titer increase at 37° C. (CHO DG44 cells [3]) | Batch titer (HEK293E cells [4]; 3 mmol/l sodium butyrate, IgG with p18 and p21, day 14 after transfection) | Fold increase over control (HEK293E cells [4]; 3 mmol/l sodium butyrate, day 14 after transfection) | optimal concentration (HEK293E cells [4]; in combination with HEK293E cells) | Batch titer increase at 31° C. (HEK293E cells [5]) | Batch titer increase at 37° C. (HEK293E cells [5]) |
| --- | --- | --- | --- | --- | --- | --- | --- | --- | --- | --- | --- | --- |
| Nc1ncn([C@@H]2O[C@H](CO)[C@@H](O)[C@H]2O)c(=O)n1 [Azacytidine] | 160% ± 15% | 160% ± 10% | act synergistically together with VPA | – | – | – | – | – | – | – | – | – |
| O=C(O)C(Cc1c[nH]c2ccccc12)N1C(=O)c2ccccc2C1=O (stereo not shown) [RG108] | – | – | act synergistically together with VPA | 150% ± 20% | 170% ± 15% | – | – | – | – | – | – | – |
| CCCC(=O)[O-].[Na+] [sodium butyrate] | – | – | – | – | – | 1.3 ± 0.1 | 1.9 ± 0.1 | 528 ± 42 mg/L | 7.2 fold | 3 mmol/L | 4.8 ± 0.4 | 4.8 ± 0.4 |

From patent US20090023186A1, “USE OF VALPROIC ACID FOR ENHANCING PRODUCTION OF RECOMBINANT PROTEINS IN MAMMALIAN CELLS” (EXCELLGENE SA, priority 2007, published 2009)
